Numbers after ± are expanded uncertainties.
Experiment: xn = mol fraction of the nth substance listed
Details: 101.3 kPa, Liquid, Vibrating tube method

CCCC(C)O (centres undefined) [pentan-2-ol] + ClCCCl
mass density [kg/m3]
Details | 288.15 K | 293.15 K | 298.15 K | 303.15 K | 308.15 K | 313.15 K
x1 = 0.0509 | 1226.72 ± 0.55 | 1219.63 ± 0.55 | 1212.52 ± 0.54 | 1205.37 ± 0.53 | 1198.2 ± 0.52 | 1191 ± 0.51
x1 = 0.0999 | 1196.47 ± 0.52 | 1189.53 ± 0.51 | 1182.56 ± 0.5 | 1175.56 ± 0.5 | 1168.53 ± 0.49 | 1161.46 ± 0.48
x1 = 0.1497 | 1167.33 ± 0.49 | 1160.55 ± 0.48 | 1153.74 ± 0.47 | 1146.89 ± 0.46 | 1140.02 ± 0.46 | 1133.12 ± 0.45
x1 = 0.2001 | 1139.13 ± 0.46 | 1132.52 ± 0.45 | 1125.87 ± 0.44 | 1119.19 ± 0.43 | 1112.48 ± 0.43 | 1105.73 ± 0.42
x1 = 0.2502 | 1112.6 ± 0.43 | 1106.17 ± 0.42 | 1099.71 ± 0.41 | 1093.19 ± 0.41 | 1086.65 ± 0.4 | 1080.06 ± 0.39
x1 = 0.2998 | 1087.39 ± 0.4 | 1081.13 ± 0.39 | 1074.82 ± 0.39 | 1068.48 ± 0.38 | 1062.1 ± 0.37 | 1055.67 ± 0.37
x1 = 0.3504 | 1062.46 ± 0.37 | 1056.4 ± 0.37 | 1050.28 ± 0.36 | 1044.1 ± 0.35 | 1037.89 ± 0.35 | 1031.63 ± 0.34
x1 = 0.4003 | 1038.87 ± 0.35 | 1033 ± 0.34 | 1027.05 ± 0.34 | 1021.06 ± 0.33 | 1015.01 ± 0.32 | 1008.92 ± 0.32
x1 = 0.4498 | 1016.42 ± 0.33 | 1010.71 ± 0.32 | 1004.93 ± 0.31 | 999.094 ± 0.31 | 993.214 ± 0.31 | 987.283 ± 0.31
x1 = 0.4996 | 994.615 ± 0.31 | 989.082 ± 0.31 | 983.473 ± 0.31 | 977.807 ± 0.31 | 972.094 ± 0.31 | 966.328 ± 0.31
x1 = 0.55 | 973.401 ± 0.31 | 967.993 ± 0.31 | 962.539 ± 0.31 | 957.039 ± 0.31 | 951.485 ± 0.31 | 945.875 ± 0.31
x1 = 0.5998 | 953.123 ± 0.31 | 947.916 ± 0.31 | 942.637 ± 0.31 | 937.302 ± 0.31 | 931.911 ± 0.31 | 926.465 ± 0.31
x1 = 0.6497 | 933.494 ± 0.31 | 928.405 ± 0.31 | 923.275 ± 0.31 | 918.089 ± 0.31 | 912.85 ± 0.31 | 907.552 ± 0.31
x1 = 0.6997 | 914.579 ± 0.31 | 909.663 ± 0.31 | 904.685 ± 0.31 | 899.659 ± 0.31 | 894.573 ± 0.31 | 889.432 ± 0.31
x1 = 0.7493 | 896.637 ± 0.31 | 891.863 ± 0.31 | 887.037 ± 0.31 | 882.154 ± 0.31 | 877.213 ± 0.31 | 872.217 ± 0.31
x1 = 0.8001 | 878.694 ± 0.31 | 874.079 ± 0.31 | 869.408 ± 0.31 | 864.68 ± 0.31 | 859.891 ± 0.31 | 855.042 ± 0.31
x1 = 0.8497 | 861.674 ± 0.31 | 857.211 ± 0.31 | 852.695 ± 0.31 | 848.111 ± 0.31 | 843.467 ± 0.31 | 838.76 ± 0.31
x1 = 0.8991 | 845.438 ± 0.31 | 841.13 ± 0.31 | 836.763 ± 0.31 | 832.331 ± 0.31 | 827.833 ± 0.31 | 823.267 ± 0.31
x1 = 0.9504 | 828.863 ± 0.31 | 824.722 ± 0.31 | 820.52 ± 0.31 | 816.244 ± 0.31 | 811.899 ± 0.31 | 807.481 ± 0.31
